System: rats subjected to transient bilateral occlusion of the common carotid artery (BCCA)
Test: Open field test of exploratory performance after transient bilateral occlusion of the common carotid artery (BCCA)
Format: in vivo, rat
Conditions: for Ambulation / Blocks (episodes of interest in blocks) / Defecation / Grooming / Rearing: 60 mg/kg/d s.c. osmotic minipump, open field 5 min, x ± SEM
[1] = BCCA + (6) group, 60 mg/kg/d, 5 days after BCCA
[2] = BCCA + (6): BCCA 30 min, 5 days after BCCA
[3] = Control + (6) group (reference = 100)
[4] = Control + (6): sham-operated Wistar rats

O=C(O)CN1C(=O)[C@@H](NC(=O)C2(C[C@@H](CCc3ccccc3)C(=O)O)CCCC2)CCc2ccccc21 [Compound (6), (2R)-2-{[1-({[(3S)-1-(carboxymethyl)-2-oxo-2,3,4,5-tetrahydro-1H-1-benzazepin-3-yl]amino}carbonyl)cyclopentyl]methyl}-4-phenylbutanoic acid]
Ambulation, % of sham-operated controls [1]: 94.81%
Blocks (episodes of interest in blocks), % of sham-operated controls [1]: 103.80%
Defecation, % of sham-operated controls [1]: 82.54%
Grooming, % of sham-operated controls [1]: 112.83%
Rearing, % of sham-operated controls [1]: 104.62%
Ambulation [2]: 2741 ± 4.25 (n)
Blocks (episodes of interest in blocks) [2]: 7.64 ± 2.54 (n)
Defecation [2]: 1.04 ± 0.45 (n)
Grooming [2]: 5.98 ± 1.06 (n)
Rearing [2]: 12.01 ± 3.86 (n)
Ambulation, % of Control + (6) [3]: 100%
Blocks, % of Control + (6) [3]: 100%
Defecation, % of Control + (6) [3]: 100%
Grooming, % of Control + (6) [3]: 100%
Rearing, % of Control + (6) [3]: 100%
Ambulation [4]: 28.91 ± 5.13 (n)
Blocks (episodes of interest in blocks) [4]: 7.36 ± 2.85 (n)
Defecation [4]: 1.26 ± 0.45 (n)
Grooming [4]: 5.30 ± 1.57 (n)
Rearing [4]: 11.48 ± 3.51 (n)
Exploratory performance in rats subjected to BCCA (open field test, 60 mg/kg/d, result in words, 60 mg/kg/day): statistically significant improvement
